Assay results: the supplement of paper PMC8882468

Key:
Assay in all cases: CTG-3D luminescence at 96 h relative to day-0 seeding control (ratio to day 0); higher = more growth / less cytotoxicity; PDxO 3D drug screen, 96 h, CTG-3D normalised to day-0 seeding control.
HCI-001 = system: HCI-001 (organoid from a triple-negative breast cancer xenograft)
HCI-005.E2 = system: HCI-005.E2 (organoid from a breast cancer xenograft with a HER2-positive history)
HCI-011.E2 = system: HCI-011.E2 (organoid from an ER-positive breast cancer xenograft)
HCI-019 = system: HCI-019 (organoid from a triple-negative breast cancer xenograft)
HCI-024 = system: HCI-024 (organoid from a breast cancer xenograft)

C[C@]12CC[C@@H]3c4ccc(O)cc4C[C@@H](CCCCCCCCC[S+]([O-])CCCC(F)(F)C(F)(F)F)[C@H]3[C@@H]1CC[C@@H]2O (stereo not given in full) [fulvestrant]
CTG-3D luminescence at 96 h
Conditions | 12.5 pM | 0.00025 µM | 0.005 µM | 0.1 µM | 1 µM | 10 µM | 100 µM | 625 fM
HCI-001, days in culture: 240 | 1.44 | 1.04 | 1.03 | 0.906 | 1.68 | 1.06 | 1.55 | 1.65
HCI-001, days in culture: 260 | 2.56 | 1.23 | 1.9 | 1.86 | 1.59 | 1.46 | 1.1 | 1.68
HCI-001, days in culture: 269 | 1.44 | 1.59 | 1.41 | 1.34 | 1.45 | 1.7 | 1.69 | 1.43
HCI-001, days in culture: 327 | 1.73 | 1.68 | 2.18 | 1.97 | 1.64 | 1.23 | 1.65 | 2.08
HCI-001, days in culture: 346 | 1.34 | 1.3 | 1.11 | 1.33 | 1.42 | 1.16 | 1.38 | 1.11
HCI-001, days in culture: 364 | 1.63 | 1.34 | 1.37 | 0.918 | 0.954 | 1.28 | 1.02 | 1.75
HCI-011.E2, days in culture: 74 | 2.77 | 2.62 | 1.87 | 2.1 | 2.1 | 2.2 | 2.02 | 2.9
HCI-019, days in culture: 110 | 2.08 | 1.72 | 1.89 | 2.26 | 1.97 | 2.13 | 1.73 | 1.57
HCI-019, days in culture: 131 | 2.86 | 3.69 | 2.72 | 3.98 | 3.13 | 2.98 | 1.94 | 4.13
HCI-019, days in culture: 152 | 2.85 | 3 | 3.24 | 2.41 | 1.37 | 2.3 | 1.6 | 2.94
HCI-024, days in culture: 105 | 1.45 | 1.55 | 1.32 | 1.36 | 1.34 | 2.02 | 1.67 | 1.87
HCI-024, days in culture: 122 | 2.08 | 2.51 | 2.43 | 1.84 | 1.77 | 2.65 | 1.86 | 2.53
HCI-024, days in culture: 163 | 1.83 | 1.9 | 1.55 | 2.47 | 2.05 | 1.88 | 2.09 | 1.91

CTG-3D luminescence at 96 h
Conditions | 12.5 pM | 0.00025 µM | 0.005 µM | 0.1 µM | 1 µM | 10 µM | 100 µM | 625 fM
HCI-005.E2 | 1.53 | 2.5 | 1.79 | 2.34 | 1.61 | 1.5 | 1.34 | 1.72
HCI-011.E2 | 1.73 | 1.6 | 1.24 | 1.51 | 1.37 | 1.82 | 1.73 | 1.62

CC(=O)O[C@H]1C(=O)[C@@]2(C)[C@H]([C@H](OC(=O)c3ccccc3)[C@]3(O)C[C@H](OC(=O)[C@H](O)[C@@H](NC(=O)c4ccccc4)c4ccccc4)C(C)=C1C3(C)C)[C@]1(OC(C)=O)CO[C@@H]1C[C@@H]2O [paclitaxel]
CTG-3D luminescence at 96 h
Conditions | 12.5 pM | 0.00025 µM | 0.005 µM | 0.1 µM | 1 µM | 10 µM | 100 µM | 625 fM
HCI-001, days in culture: 240 | 1.49 | 1.15 | 0.619 | 0.709 | 0.952 | 0.995 | 1.03 | 1.1
HCI-001, days in culture: 260 | 2.45 | 1.13 | 1.23 | 1.27 | 1.14 | 1.08 | 0.703 | 1.55
HCI-001, days in culture: 269 | 1.48 | 1.52 | 0.95 | 0.728 | 0.749 | 0.987 | 0.92 | 1.27
HCI-001, days in culture: 327 | 1.26 | 0.725 | 1.04 | 0.686 | 1.06 | 0.714 | 0.685 | 1.53
HCI-001, days in culture: 346 | 1.29 | 1.24 | 1.16 | 0.568 | 0.791 | 0.655 | 0.947 | 1.18
HCI-001, days in culture: 364 | 1.37 | 1.15 | 1.31 | 0.657 | 0.699 | 0.681 | 0.715 | 1.49
HCI-011.E2, days in culture: 74 | 2.01 | 2.21 | 1.82 | 1.95 | 1.91 | 2.73 | 1.85 | 2.25
HCI-019, days in culture: 110 | 1.88 | 1.91 | 0.816 | 0.627 | 0.47 | 0.827 | 0.987 | 2.39
HCI-019, days in culture: 131 | 2.01 | 2.78 | 0.75 | 0.609 | 0.644 | 1.48 | 1.29 | 3.26
HCI-019, days in culture: 152 | 1.25 | 1.28 | 0.778 | 0.964 | 0.598 | 1.01 | 1.18 | 1.52
HCI-024, days in culture: 105 | 1.8 | 1.38 | 1.01 | 1.4 | 1.57 | 1.68 | 1.11 | 1.85
HCI-024, days in culture: 122 | 2.07 | 2.67 | 1.5 | 1.34 | 1.62 | 2.3 | 1.13 | 2.79
HCI-024, days in culture: 163 | 1.62 | 1.72 | 1.29 | 1.68 | 1.65 | 2.37 | 1.26 | 1.56

CTG-3D luminescence at 96 h
Conditions | 12.5 pM | 0.00025 µM | 0.005 µM | 0.1 µM | 1 µM | 10 µM | 100 µM | 625 fM
HCI-005.E2 | 1.56 | 1.54 | 1.53 | 1.34 | 1.49 | 1.85 | 1.39 | 1.97
HCI-011.E2 | 1.3 | 1.33 | 1.09 | 1.41 | 1.34 | 1.77 | 1.8 | 1.52

Cc1nc(-c2cn3c(n2)-c2ccc(-c4cnn(C(C)(C)C(N)=O)c4)cc2OCC3)n(C(C)C)n1 [taselisib]
CTG-3D luminescence at 96 h
Conditions | 12.5 pM | 0.00025 µM | 0.005 µM | 0.1 µM | 1 µM | 10 µM | 100 µM | 625 fM
HCI-001, days in culture: 240 | 1.68 | 0.982 | 1.07 | 0.482 | 0.567 | 0.383 | 0.093 | 1.22
HCI-001, days in culture: 260 | 2.04 | 1.03 | 1.04 | 0.934 | 0.486 | 0.536 | 0.019 | 1.57
HCI-001, days in culture: 269 | 1.61 | 1.56 | 1.43 | 1.21 | 0.629 | 0.576 | 0.0422 | 1.86
HCI-001, days in culture: 327 | 1.4 | 1.39 | 1.7 | 1.66 | 0.874 | 0.542 | 0.213 | 1.84
HCI-001, days in culture: 346 | 1.31 | 1.22 | 1.02 | 1.1 | 1.15 | 0.603 | 0.269 | 1.12
HCI-001, days in culture: 364 | 1.5 | 1.06 | 1.37 | 0.786 | 0.791 | 0.737 | 0.0204 | 1.53
HCI-011.E2, days in culture: 74 | 2.48 | 2.64 | 1.33 | 0.778 | 0.432 | 0.326 | 0.711 | 2.81
HCI-019, days in culture: 110 | 1.23 | 1.32 | 1.4 | 1.45 | 0.521 | 0.496 | 0.105 | 2.64
HCI-019, days in culture: 131 | 2.82 | 3.38 | 3.03 | 1.62 | 1.23 | 0.571 | 0.133 | 4.04
HCI-019, days in culture: 152 | 3.26 | 2.42 | 2.02 | 1.86 | 1.08 | 0.381 | 0.116 | 2.51
HCI-024, days in culture: 105 | 1.47 | 1.44 | 1.54 | 1.77 | 1.34 | 0.981 | 0.403 | 1.9
HCI-024, days in culture: 122 | 2.21 | 2.49 | 1.79 | 1.88 | 1.6 | 1.81 | 0.258 | 2.63
HCI-024, days in culture: 163 | 1.36 | 2.13 | 1.7 | 2.36 | 2.06 | 1.62 | 0.316 | 2

CTG-3D luminescence at 96 h
Conditions | 12.5 pM | 0.00025 µM | 0.005 µM | 0.1 µM | 1 µM | 10 µM | 100 µM | 625 fM
HCI-005.E2 | 1.52 | 1.77 | 1.52 | 1.21 | 0.401 | 0.348 | 0.34 | 2.12
HCI-011.E2 | 1.44 | 1.59 | 1.07 | 0.776 | 0.369 | 0.212 | 0.527 | 1.51

CC[C@H](NC(=O)[C@H](C)NC)C(=O)N1C[C@@H](O)C[C@H]1Cc1c(-c2[nH]c3cc(F)ccc3c2C[C@@H]2C[C@H](O)CN2C(=O)[C@H](CC)NC(=O)[C@H](C)NC)[nH]c2cc(F)ccc12 [birinapant]
CTG-3D luminescence at 96 h
Conditions | 12.5 pM | 0.00025 µM | 0.005 µM | 0.1 µM | 1 µM | 10 µM | 100 µM | 625 fM
HCI-001, days in culture: 240 | 1.73 | 1.11 | 0.766 | 1.19 | 1.35 | 0.911 | 0.0991 | 1.19
HCI-001, days in culture: 260 | 2.4 | 0.757 | 1.95 | 1.48 | 1.34 | 1.44 | 0.312 | 1.51
HCI-001, days in culture: 269 | 1.5 | 1.67 | 1.54 | 1.87 | 1.68 | 2.3 | -0.0177 | 1.65
HCI-001, days in culture: 327 | 1.48 | 1.44 | 1.63 | 1.67 | 1.34 | 1.26 | 0.695 | 1.57
HCI-001, days in culture: 346 | 1.48 | 1.48 | 1.12 | 1.08 | 1.35 | 1.42 | 1.37 | 1.14
HCI-001, days in culture: 364 | 1.38 | 1.05 | 1.4 | 1.27 | 1.07 | 1.32 | 1.04 | 1.5
HCI-011.E2, days in culture: 74 | 2.25 | 2.3 | 1.91 | 1.82 | 1.85 | 1.48 | 1.22 | 2.46
HCI-019, days in culture: 110 | 1.9 | 2.21 | 1.18 | 0.993 | 0.634 | 1.01 | 0.351 | 1.87
HCI-019, days in culture: 131 | 2.64 | 3.89 | 2.09 | 3.03 | 1.34 | 2.65 | 0.638 | 3.16
HCI-019, days in culture: 152 | 2.72 | 2 | 2.1 | 1.49 | 0.853 | 1.05 | 0.336 | 1.84
HCI-024, days in culture: 105 | 1.4 | 1.17 | 0.375 | 0.175 | 0.139 | 0.177 | 0.0272 | 1.84
HCI-024, days in culture: 122 | 1.7 | 1.71 | 0.726 | 0.194 | 0.134 | 0.237 | 0.0303 | 2.58
HCI-024, days in culture: 163 | 1.8 | 1.36 | 0.525 | 0.315 | 0.255 | 0.23 | 0.0734 | 2.09

CTG-3D luminescence at 96 h
Conditions | 12.5 pM | 0.00025 µM | 0.005 µM | 0.1 µM | 1 µM | 10 µM | 100 µM | 625 fM
HCI-005.E2 | 1.74 | 1.66 | 1.74 | 1.77 | 1.79 | 1.51 | 1.29 | 1.76
HCI-011.E2 | 1.4 | 1.53 | 1.16 | 1.61 | 1.34 | 1.59 | 0.956 | 1.72
